# Measurements reported in US20230135093A1, “TRIAZOLYL DERIVATIVES AS GABA A ALPHA5 PAM” (Hoffmann-La Roche Inc., priority 2020, published 2023).
# Legend:
# h-GABA-A α5β3γ2 [1] = target: T1, h-GABA-A α5β3γ2 (Homo sapiens, UniProt P18507+P31644); test: [3H]flumazenil competition binding assay on membranes of HEK293 cells expressing GABAA receptors; conditions: Table 1; displacement of [3H]-Flumazenil (0.5 nM), HEK293 cells expressing human receptors, means of two determinations
# T1 construct: expressed in transfected cells; host or cells: Xenopus laevis oocytes, micro-injected with subunit RNA
# How it was run: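 Membranes from HEK293 cells transiently expressing human α5β3γ2 were incubated 1 h at 4 °C in Krebs-tris pH 7.5 with 0.5 nM [3H]flumazenil and test compound. Nonspecific binding was set with 10^−5 M diazepam. Bound radioactivity was filtered and counted. Ki is the mean of two determinations.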
# h-GABA-A α5β3γ2 [2] = target: T1, h-GABA-A α5β3γ2; test: Two-electrode voltage clamp electrophysiology in Xenopus oocytes expressing GABAA receptors (modulation of GABA EC20 current); format: cell-based; conditions: Table 1; for Efficacy (GABA) %: % modulation of GABA EC20 = 100*(Fold increase-1); for Fold increase h-GABA-A α5β3γ2 oocyte: Xenopus oocytes, GABA EC20, test compound at approximatively 30 fold its Ki
# How it was run: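 Oocytes injected with α5β3γ2 subunit RNA, recorded 3-5 days later by two-electrode clamp at −80 mV, room temperature, pH 7.4. The compound, at ~30-fold its Ki, was co-applied during a second GABA EC20 pulse. Efficacy was the extremum of the point-by-point second/first current ratio, given as % modulation (100×(fold−1)); n≥3 oocytes.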
SMILES,Ki (h-GABA-A α5β3γ2 [1]),Efficacy (GABA) % (h-GABA-A α5β3γ2 [2]),Fold increase h-GABA-A α5β3γ2 oocyte (h-GABA-A α5β3γ2 [2])
"Cn1nnc(-c2ccc(C(F)(F)F)cc2F)c1Cn1ncc(N2CC(OC3CCC3)C2)cc1=O [Example 77, 5-[3-(cyclo-butoxy)azetidin-1-yl]-2-[[5-[2-fluoro-4-(trifluoro-methyl)phenyl]-3-methyl-triazol-4-yl]methyl]pyridazin-3-one]",18.4 nM,66%,1.66
"Cn1nnc(-c2ccc(Cl)cc2F)c1Cn1ncc(N2CC(Oc3ccncn3)C2)cc1=O [Example 78, 2-[[5-(4-chloro-2-fluoro-phenyl)-3-methyl-triazol-4-yl]methyl]-5-(3-pyrimidin-4-yloxyazetidin-1-yl)pyridazin-3-one]",11.2 nM,106%,2.06
"Cn1nnc(-c2ccc(Cl)cc2F)c1Cn1ncc(N2CC(Oc3cccnn3)C2)cc1=O [Example 79, 2-((5-(4-chloro-2-fluoro-phenyl)-3-methyl-triazol-4-yl)methyl)-5-(3-pyridazin-3-yloxyazetidin-1-yl)pyridazin-3-one]",11 nM,88%,1.88
"Cn1nnc(-c2ccc(Cl)cc2F)c1Cn1ncc(N2CC(Oc3ccc(Cl)cn3)C2)cc1=O [Example 80, 2-[[5-(4-chloro-2-fluoro-phenyl)-3-methyl-triazol-4-yl]methyl]-5-[3-[(5-chloro-2-pyridyl)oxy]azetidin-1-yl]pyridazin-3-one]",16.8 nM,72%,1.72
"COc1cc(-c2cnn(Cc3c(-c4ccc(C)nc4)nnn3C)c(=O)c2)ccn1 [Example 81, 5-(2-methoxy-4-pyridyl)-2-((3-methyl-5-(6-methyl-3-pyridyl)triazol-4-yl)methyl)pyridazin-3-one]",19.9 nM,110%,2.1
"COc1ncc(-c2cnn(Cc3c(-c4ccc(C)nc4)nnn3C)c(=O)c2)cc1Cl [Example 82, 5-(5-chloro-6-methoxy-3-pyridyl)-2-((3-methyl-5-(6-methyl-3-pyridyl)triazol-4-yl)methyl)pyridazin-3-one]",31 nM,236%,3.36
"Cn1nnc(-c2ccc(C(F)(F)F)cc2F)c1Cn1ncc(N2CC(Oc3cccnn3)C2)cc1=O [Example 83, 2-[[5-[2-fluoro-4-(trifluoromethyl)phenyl]-3-methyl-triazol-4-yl]methyl]-5-(3-pyridazin-3-yloxyazetidin-1-yl)pyridazin-3-one]",14.7 nM,108%,2.08
"Cn1nnc(-c2ccc(C(F)(F)F)cc2F)c1Cn1ncc(N2CC(Oc3ccccn3)C2)cc1=O [Example 84, 2-[[5-[2-fluoro-4-(trifluoromethyl)phenyl]-3-methyl-triazol-4-yl]methyl]-5-[3-(2-pyridyloxy)azetidin-1-yl]pyridazin-3-one]",10.2 nM,73%,1.73
"CCn1nnc(-c2ccc(Cl)cc2F)c1Cn1ncc(N2CC(OC3CCC3)C2)cc1=O [Example 85, 2-[[5-(4-chloro-2-fluoro-phenyl)-3-ethyl-triazol-4-yl]methyl]-5-[3-(cyclobutoxy)azetidin-1-yl]pyridazin-3-one]",18.5 nM,143%,2.43
"CCn1nnc(-c2ccc(Cl)cc2F)c1Cn1ncc(N2CC(OCC(F)F)C2)cc1=O [Example 86, 2-[[5-(4-chloro-2-fluoro-phenyl)-3-ethyl-triazol-4-yl]methyl]-5-[3-(2,2-difluoro-ethoxy)azetidin-1-yl]pyridazin-3-one]",10.8 nM,136%,2.36
"CCn1nnc(-c2ccc(Cl)cc2F)c1Cn1ncc(N2CC(OCC(F)(F)F)C2)cc1=O [Example 87, 2-[[5-(4-chloro-2-fluoro-phenyl)-3-ethyl-triazol-4-yl]methyl]-5-[3-(2,2,2-trifluoro-ethoxy)azetidin-1-yl]pyridazin-3-one]",12.5 nM,115%,2.15
"CCn1nnc(-c2ccc(Cl)cc2F)c1Cn1ncc(N2CC(OC(F)F)C2)cc1=O [Example 88, 2-[[5-(4-chloro-2-fluoro-phenyl)-3-ethyl-triazol-4-yl]methyl]-5-[3-(difluoromethoxy)azetidin-1-yl]pyridazin-3-one]",7 nM,126%,2.26
"Cn1nnc(-c2ccc(C(F)(F)F)cc2F)c1Cn1ncc(N2CC(Oc3cnccn3)C2)cc1=O [Example 89, 2-[[5-[2-fluoro-4-(trifluoromethyl)phenyl]-3-methyl-triazol-4-yl]methyl]-5-(3-pyrazin-2-yloxyazetidin-1-yl)pyridazin-3-one]",9.3 nM,76%,1.76
"CCn1nnc(-c2ccc(Cl)cc2F)c1Cn1ncc(N2CC(OC(C)C)C2)cc1=O [Example 90, 2-[[5-(4-chloro-2-fluoro-phenyl)-3-ethyl-triazol-4-yl]methyl]-5-(3-isopropoxyazetidin-1-yl)pyridazin-3-one]",19.4 nM,96%,1.96
"CCOC1CN(c2cnn(Cc3c(-c4ccc(Cl)cc4F)nnn3CC)c(=O)c2)C1 [Example 91, 2-[[5-(4-chloro-2-fluoro-phenyl)-3-ethyl-triazol-4-yl]methyl]-5-(3-ethoxyazetidin-1-yl)pyridazin-3-one]",18.2 nM,128%,2.28
"CCn1nnc(-c2ccc(Cl)cc2F)c1Cn1ncc(N2CCN(C(C)C)[C@@H](C)C2)cc1=O [Example 92, 2-[[5-(4-chloro-2-fluoro-phenyl)-3-ethyl-triazol-4-yl]methyl]-5-[(3S)-4-isopropyl-3-methyl-piperazin-1-yl]pyridazin-3-one]",5.6 nM,159%,2.59
"Cn1nnc(-c2ccc(C(F)(F)F)cc2F)c1Cn1ncc(N2CC(Oc3ccc(Cl)nc3)C2)cc1=O [Example 93, 5-[3-[(6-chloro-3-pyridyl)oxy]azetidin-1-yl]-2-[[5-[2-fluoro-4-(trifluoromethyl)phenyl]-3-methyl-triazol-4-yl]methyl]pyridazin-3-one]",9.4 nM,79%,1.79
"CC(C)N1CCN(c2cnn(Cc3c(-c4ccc(C(F)(F)F)cc4F)nnn3C)c(=O)c2)C[C@@H]1C [Example 94, 2-[[5-[2-fluoro-4-(trifluoromethyl)phenyl]-3-methyl-triazol-4-yl]methyl]-5-[(3S)-4-isopropyl-3-methyl-piperazin-1-yl]pyridazin-3-one]",10.4 nM,127%,2.27
"Cn1nnc(-c2ccc(Cl)cc2F)c1Cn1ncc(N2CC3(CCCCO3)C2)cc1=O [Example 95, 2-[[5-(4-chloro-2-fluoro-phenyl)-3-methyl-triazol-4-yl]methyl]-5-(5-oxa-2-azaspiro[3.5]nonan-2-yl)pyridazin-3-one]",11.1 nM,58%,1.58
"Cn1nnc(-c2ccc(Cl)cc2F)c1Cn1ncc(N2CC(OC(C)(C)C)C2)cc1=O [Example 96, 5-(3-tert-butoxyazetidin-1-yl)-2-[[5-(4-chloro-2-fluoro-phenyl)-3-methyl-triazol-4-yl]methyl]pyridazin-3-one]",20.4 nM,54%,1.54
"CCn1nnc(-c2ccc(Cl)cc2F)c1Cn1ncc(N2CC(OC(C)(C)C)C2)cc1=O [Example 97, 5-(3-tert-butoxyazetidin-1-yl)-2-[[5-(4-chloro-2-fluoro-phenyl)-3-ethyl-triazol-4-yl]methyl]pyridazin-3-one]",45.1 nM,115%,2.15
"Cn1nnc(-c2ccc(Cl)cc2F)c1Cn1ncc(N2CC(Oc3cncc(C(F)(F)F)n3)C2)cc1=O [Example 98, 2-[[5-(4-chloro-2-fluoro-phenyl)-3-methyl-triazol-4-yl]methyl]-5-[3-[6-(trifluoro-methyl)pyrazin-2-yl]oxyazetidin-1-yl]pyridazin-3-one]",8 nM,58%,1.58
"Cc1nccc(OC2CN(c3cnn(Cc4c(-c5ccc(Cl)cc5F)nnn4C)c(=O)c3)C2)n1 [Example 99, 2-[[5-(4-chloro-2-fluoro-phenyl)-3-methyl-triazol-4-yl]methyl]-5-[3-(2-methylpyrimidin-4-yl)oxyazetidin-1-yl]pyridazin-3-one]",4.6 nM,86%,1.86
"Cn1nnc(-c2ccc(Cl)cc2F)c1Cn1ncc(N2CC(Oc3ccnc(C(F)(F)F)n3)C2)cc1=O [Example 100, 2-[[5-(4-chloro-2-fluoro-phenyl)-3-methyl-triazol-4-yl]methyl]-5-[3-[2-(trifluoromethyl)pyrimidin-4-yl]oxyazetidin-1-yl]pyridazin-3-one]",15.9 nM,79%,1.79
